One compound from patent US10709140B2, “Methods and products for reducing the population size of Papilio demoleus L. (papilionidae)” (The University of The West Indies, priority 2010, dated 2020) can be followed below.

Test [1] concerns P. demoleus. Put plainly: Induced egg laying of P. demoleus on Piper amalago var. amalago plant sprayed with lime plant oil (choice test, Example 2). It counts as in vivo, Papilio demoleus. The following applies: Piper amalago var. amalago plant sprayed with the attractant. The source says:
P. demoleus were induced to lay eggs on Piper amalago var. amalago plant to confirm its unsuitability to sustain target insects and to determine whether it could be used to reduce the population size of target insects. Natural Piper amalago var. amalago plant was considered a suitable non-host plant because P. demoleus would not feed or breed on it in the wild.
Twelve pupae bred on lime plants were placed in the laying cage and were allowed to mate. Gravid females were given a choice of plants on which to lay: unsprayed lime, unsprayed Piper amalago var. amalago plant, and Piper amalago var. amalago plant sprayed with lime plant oil. Piper amalago var. amalago plant sprayed with lime plant oil was prepared using an aerosol spray containing 0.45% by weight lime plant oil in a hydrocarbon mixture. The aerosol mixture was applied to the young leaves of Piper amalago var. amalago plants twice daily.
Gravid females were allowed to lay eggs until the laying subsided on the tenth day. Of the 95 eggs laid, the majority were laid on Piper amalago var. amalago plant sprayed with lime oil. Sixty-one eggs, or 64%, were laid on Piper amalago var. amalago plant sprayed with lime oil. Only 34 eggs, or 36%, were laid on unsprayed lime plant. No eggs were laid on unsprayed Piper amalago var. amalago plant. […]

Test [2] deals with P. demoleus. Nature of the test: Egg laying by P. demoleus on Piper aduncum cuttings sprayed with lime oil or d-limonene (choice test, Example 5). The class given is in vivo, Papilio demoleus. The method, then:
Five P. demoleus pupae were placed in the cage. Upon hatching, the emerging adults were determined to be 3 males and 2 females. The butterflies were allowed to mate and given a choice of plants on which to lay by placing all around the cage unsprayed lime seedlings, unsprayed Piper aduncum cuttings, Piper aduncum cuttings sprayed with lime oil, and Piper aduncum cuttings sprayed with d-limonene. Egg laying was allowed to continue for up a total of 16 days, only the first 8 of which the Piper aduncum shoots remained fresh. Referring to Table 5A, a total of 16 eggs were laid in the first 8 days. The majority of eggs (62.5%) were laid on unsprayed lime plant. However, a significant number of eggs were laid on sprayed Piper aduncum shoots (37.5%). […] No eggs were laid on unsprayed Piper aduncum.
After day 8, the Piper aduncum leaves began to wilt and were noticeably less attractive to gravid females. […] By day 20, no more eggs were laid, and the total number of eggs was counted.
All of the eggs that were laid on lime plant hatched into larvae that fed normally on the lime plant leaves on which they were laid. The 6 eggs laid on Piper aduncum shoots sprayed with lime oil or d-limonene hatched normally. The Piper aduncum shoots were still young, fresh, and otherwise capable of sustaining larvae when the eggs laid eggs on sprayed Piper aduncum shoots hatched. […]

On to `C=C(C)[C@H]1CC=C(C)CC1` [d-limonene], for which the “breeding and feeding on sprayed Piper amalago var. amalago plants” value with P. demoleus [1] is recorded as “majority of the P. demoleus population was induced to breed, but not feed”. Besides, the “eggs laid on sprayed Piper aduncum” value with P. demoleus [2] (Days 1-8, choice vs unsprayed lime and unsprayed Piper aduncum, total 16 eggs) was 3 eggs; in the test on P. demoleus [2] (Days 9-20 as titled, total 39 eggs) it was 3 eggs.
